Here are results for five molecules from patent US20240158446A1, “CYCLIC COMPOUND HAVING SELECTIVE INHIBITORY ACTION ON KRAS OVER HRAS AND NRAS” (CHUGAI SEIYAKU KABUSHIKI KAISHA, priority 2021, published 2024).

For assay [1], the target named is GDP-bound HRAS wild-type protein (Homo sapiens, UniProt P01112). The assay can be described thus: Binding to HRAS by surface plasmon resonance (SPR), Single Cycle Kinetics. Conditions: SPR; GDP-bound HRAS wild-type protein vs GDP-bound KRAS wild-type protein; KD ratio class. In general terms: In SPR one partner is held on a chip, and binding of the other changes the refractive index at the surface.

Assay [2] deals with human lung cancer strain NCI-H441.
The target of assay [3] is GDP-bound NRAS wild-type protein (Homo sapiens, UniProt P01111). The assay can be described thus: Binding to NRAS by surface plasmon resonance (SPR), Single Cycle Kinetics. The conditions noted are these: SPR; GDP-bound NRAS wild-type protein vs GDP-bound KRAS wild-type protein; KD ratio class.
Assay [4] concerns the target GDP-bound KRAS wild-type protein (Homo sapiens, UniProt P01116). The assay can be described thus: Binding to KRAS by surface plasmon resonance (SPR), Single Cycle Kinetics. The conditions noted are these: SPR, Single Cycle Kinetics, 1:1 binding model; GDP-bound KRAS wild-type protein; read-out: KRAS KD.

A word on the IC50: it is the concentration at which inhibition is half-maximal. For orientation: Kd means the constant that tells how readily two partners part at equilibrium.
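Throughout, for IC50: cell proliferation inhibition after four days measured by CellTiter-Glo.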

Chain of GDP-bound KRAS wild-type protein (P01116 whole entry): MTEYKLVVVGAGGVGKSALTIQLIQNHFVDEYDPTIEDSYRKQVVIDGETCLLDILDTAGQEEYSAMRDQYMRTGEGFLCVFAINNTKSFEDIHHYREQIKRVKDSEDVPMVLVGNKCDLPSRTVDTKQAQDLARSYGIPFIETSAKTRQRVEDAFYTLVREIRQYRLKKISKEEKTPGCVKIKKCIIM
Chain of GDP-bound NRAS wild-type protein (P01111 whole entry): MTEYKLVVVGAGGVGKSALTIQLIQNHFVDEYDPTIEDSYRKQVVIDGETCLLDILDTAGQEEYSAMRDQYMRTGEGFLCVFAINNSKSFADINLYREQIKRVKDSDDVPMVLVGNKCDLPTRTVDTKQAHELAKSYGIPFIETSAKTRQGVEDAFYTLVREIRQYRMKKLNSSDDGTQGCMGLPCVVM
Chain of GDP-bound HRAS wild-type protein (P01112 whole entry): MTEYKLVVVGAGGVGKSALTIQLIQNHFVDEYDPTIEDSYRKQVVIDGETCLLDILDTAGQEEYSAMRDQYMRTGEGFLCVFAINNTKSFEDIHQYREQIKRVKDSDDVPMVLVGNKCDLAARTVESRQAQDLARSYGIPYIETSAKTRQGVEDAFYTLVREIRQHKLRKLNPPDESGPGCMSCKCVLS

Consider `CCO[C@@H]1C[C@H]2C(=O)NC3(CCC3)C(=O)N(C)[C@@H](C3CCCC3)C(=O)N(C)[C@H](C(=O)N3CCCC3)CC(=O)N(C)[C@@H](CC3CC3)C(=O)N[C@@H]([C@@H](C)CC)C(=O)N(C)CC(=O)N(C)[C@H]3C/C=C\CCN(C3=O)[C@@H](Cc3ccc(C)cc3)C(=O)N(C)CC(=O)N[C@@H](CCc3cc(F)c(C(F)(F)F)c(F)c3)C(=O)N2C1` [PP1409], for which the “HRAS/KRAS (ratio of KD value for HRAS to KD value for KRAS)” value in assay [1] was “A (a compound having 10 or more and less than 20 is denoted as A)”. In addition, the IC50 in assay [2] came to 43.5 nM. In assay [3], the “NRAS/KRAS (ratio of KD value for NRAS to KD value for KRAS)” value was “A (a compound having 10 or more and less than 20 is denoted as A)”. Moreover, the Kd in assay [4] was determined as 0.21 nM.

Consider `CCO[C@@H]1C[C@H]2C(=O)NC3(CCC3)C(=O)N(C)[C@@H](C3CCCC3)C(=O)N(C)[C@H](C)CC(=O)N(C)[C@@H](CC3CC3)C(=O)N[C@@H]([C@@H](C)CC)C(=O)N(C)CC(=O)N(C)[C@H]3C/C=C\CCN(C3=O)[C@@H](Cc3ccc(C)cc3)C(=O)N(C)CC(=O)N[C@@H](CCc3cc(F)c(C(F)(F)F)c(F)c3)C(=O)N2C1` [PP1410], for which, in assay [1], the “HRAS/KRAS (ratio of KD value for HRAS to KD value for KRAS)” value is “B (a compound having 3 or more and less than 10 is denoted as B)”. The same molecule registered an IC50 in assay [2] of 51 nM. In addition, the “NRAS/KRAS (ratio of KD value for NRAS to KD value for KRAS)” value in assay [3] is “B (a compound having 3 or more and less than 10 is denoted as B)”. In addition, the Kd in assay [4] was 0.32 nM.

Regarding `CCO[C@@H]1C[C@H]2C(=O)NC3(CCC3)C(=O)N(C)[C@@H](C3CCCC3)C(=O)N(C)[C@H](C(=O)N(C)C)CC(=O)N(C)[C@@H](CC3CCCC3)C(=O)N[C@@H]([C@@H](C)CC)C(=O)N(C)CC(=O)N(C)[C@H]3C/C=C\CCN(C3=O)[C@@H](Cc3ccc(C)cc3)C(=O)N(C)CC(=O)N[C@@H](CCc3cc(F)c(C(F)(F)F)c(F)c3)C(=O)N2C1` [PP1411, (2S,8S,12R,14S,20S,23S,27S,30S,36S,38Z)-20-cyclopentyl-27-(cyclopentylmethyl)-8-[2-[3,5-difluoro-4-(trifluoromethyl)phenyl]ethyl]-12-ethoxy-N,N,4,19,22,26,32,35-octamethyl-30-[(1S)-1-methylpropyl]-3,6,9,15,18,21,25,28,31,34,42-undecaoxo-2-(p-tolylmethyl)spiro[1,4,7,10,16,19,22,26,29,32,35-undecazatricyclo[34.5.1.0^10,14]dotetracont-38-ene-17,1′-cyclobutane]-23-carboxamide], the “HRAS/KRAS (ratio of KD value for HRAS to KD value for KRAS)” value in assay [1] is “B (a compound having 3 or more and less than 10 is denoted as B)”. This molecule displayed an IC50 in assay [2] of 6 nM. The “NRAS/KRAS (ratio of KD value for NRAS to KD value for KRAS)” value in assay [3] was “A (a compound having 10 or more and less than 20 is denoted as A)”. Further, the Kd in assay [4] came to 0.08 nM.

Take `CCO[C@@H]1C[C@H]2C(=O)NC3(CCC3)C(=O)N(C)[C@@H](C3CCCC3)C(=O)N(C)[C@H](C(=O)N3CCCC3)CC(=O)N(C)[C@@H](CC3CCCC3)C(=O)N[C@@H]([C@@H](C)CC)C(=O)N(C)CC(=O)N(C)[C@H]3C/C=C\CCN(C3=O)[C@@H](Cc3ccc(C)cc3)C(=O)N(C)CC(=O)N[C@@H](CCc3cc(F)c(C(F)(F)F)c(F)c3)C(=O)N2C1` [PP1412]: the “HRAS/KRAS (ratio of KD value for HRAS to KD value for KRAS)” value in assay [1] is “A (a compound having 10 or more and less than 20 is denoted as A)”. Also, the IC50 in assay [2] is 23 nM. Besides, the “NRAS/KRAS (ratio of KD value for NRAS to KD value for KRAS)” value in assay [3] is “A (a compound having 10 or more and less than 20 is denoted as A)”. Besides, the Kd in assay [4] was 0.19 nM.

Consider `CCO[C@@H]1C[C@H]2C(=O)NC3(CCC3)C(=O)N(C)[C@@H](C3CCCC3)C(=O)N(C)[C@H](C)CC(=O)N(C)[C@@H](CC3CCCC3)C(=O)N[C@@H]([C@@H](C)CC)C(=O)N(C)CC(=O)N(C)[C@H]3C/C=C\CCN(C3=O)[C@@H](Cc3ccc(C)cc3)C(=O)N(C)CC(=O)N[C@@H](CCc3cc(F)c(C(F)(F)F)c(F)c3)C(=O)N2C1` [PP1413], for which the “HRAS/KRAS (ratio of KD value for HRAS to KD value for KRAS)” value in assay [1] is “B (a compound having 3 or more and less than 10 is denoted as B)”. In assay [2], this molecule yielded an IC50 of 62.5 nM. Also, the “NRAS/KRAS (ratio of KD value for NRAS to KD value for KRAS)” value in assay [3] is “B (a compound having 3 or more and less than 10 is denoted as B)”. Besides, the Kd in assay [4] came to 0.42 nM.
